In patent US5232917A, “Methods, compositions, and compounds for allosteric modulation of the GABA receptor by members of the androstane and pregnane series” (priority 1991, dated 1993):
Where two headings read alike, the source gives them in different places.

Experiments:
[1] = target: T1, progesterone receptor (Bos taurus, UniProt F1N712); experiment: Inhibition of 3H-progesterone binding to bovine uteral progesterone receptors
T1 construct: from tissue; host or cells: bovine uterus cytosol
T1 sequence (F1N712 1-914): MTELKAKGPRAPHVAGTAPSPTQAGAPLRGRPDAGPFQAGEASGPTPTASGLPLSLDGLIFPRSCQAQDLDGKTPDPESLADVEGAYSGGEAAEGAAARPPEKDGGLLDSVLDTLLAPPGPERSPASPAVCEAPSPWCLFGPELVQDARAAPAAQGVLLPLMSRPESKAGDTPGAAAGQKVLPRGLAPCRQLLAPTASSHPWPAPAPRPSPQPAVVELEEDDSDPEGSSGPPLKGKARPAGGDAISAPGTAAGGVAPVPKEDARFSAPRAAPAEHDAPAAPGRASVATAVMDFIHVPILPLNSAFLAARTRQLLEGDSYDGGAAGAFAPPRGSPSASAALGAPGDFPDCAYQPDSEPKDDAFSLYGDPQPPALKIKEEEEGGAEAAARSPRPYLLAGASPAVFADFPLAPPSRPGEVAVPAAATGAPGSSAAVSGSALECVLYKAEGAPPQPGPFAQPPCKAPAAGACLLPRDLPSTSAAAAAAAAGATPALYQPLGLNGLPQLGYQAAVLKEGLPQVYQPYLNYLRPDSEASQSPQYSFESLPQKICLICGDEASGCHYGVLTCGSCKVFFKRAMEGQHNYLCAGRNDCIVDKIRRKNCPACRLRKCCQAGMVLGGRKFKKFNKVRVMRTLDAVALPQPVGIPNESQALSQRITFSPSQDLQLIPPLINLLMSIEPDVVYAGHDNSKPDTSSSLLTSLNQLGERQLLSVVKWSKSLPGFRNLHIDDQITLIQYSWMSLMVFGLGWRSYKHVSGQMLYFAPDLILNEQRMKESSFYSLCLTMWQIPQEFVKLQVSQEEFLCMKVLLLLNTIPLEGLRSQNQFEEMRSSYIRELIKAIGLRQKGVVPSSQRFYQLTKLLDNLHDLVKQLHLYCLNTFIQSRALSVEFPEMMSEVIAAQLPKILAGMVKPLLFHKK
Procedure, shortened: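 Bovine uterine cytosol served as the progesterone receptor source. Compounds were scored by their inhibition of ^3H-progesterone binding.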

[2] = test system: number of light/dark transitions (anxiety); experiment: Light/dark transition test; format: in vivo, mice (male N.I.H. Swiss-Webster); settings: for effect on number of light/dark transitions (words): 3α-OH-DHP 10, 20, 40 mg/kg, 5α-THDOC 20 mg/kg, diazepam 1.0, 5.0, 10, 20 mg/kg, 20 mg/kg
Text: (§1) The light/dark transition test (Crawley and Goodwin, 1980) is based on the observation that rodents naturally tend to explore novel environments, but open, brightly lit arenas are aversive to the rodents and inhibit exploratory behavior (Christmas and Maxwell, 1970; File, 1980). […] Similar to the light/dark transition test, the open-field test measures the antagonism between the tendency to explore a novel environment and the tendency to remain still in an aversive environment (brightly lit arena). […] The open-field test provides a simple, non-punished assessment of the potential anxiolytic properties of novel compounds. Finally, 3α-OH-DHP was tested for anxiolytic properties in a Vogel conflict paradigm. The ability of BZs to attenuate the suppression of behavior by punishment in conflict paradigms is well established (Gellar et al., 1962; Vogel et al., 1971).
(§2) Male N.I.H. Swiss-Webster mice (Harlan) weighing 15-20 g were used in all experiments. The mice were housed 4/cage in polyethylene cages with sawdust bedding. The colony room was environmentally controlled (22° C.) with a 12 hr. light/dark cycle (0600-1800 hrs.). The mice had free access to food and water. The experiments were run from 0700-1500 hrs. and groups were counterbalanced for time of day effects.
The method used was previously described by Crawley and Goodwin (1980). The apparatus included a large box (26×33×24 cm) connected to a small box (15×22×14 cm) through an opening (5×6 cm). The large box was brightly lit with a standard 100W light bulb, while the small box was kept dark. Following pretreatment with a test drug, mice were placed in the center of the large box and the number of transitions between the large and small boxes was counted for 10 min. […] During the antagonist studies, CGS-8216 was administered 30 min. prior to the test drug.
(§3) 2-Hydroxypropyl β-cyclodextrin Diazepam and chlordiazepoxide are available from Sigma, Co. (St. Louis, Mo.). CGS-8216 was obtained from Ciba-Geigy (Summit, N.J.). All drugs were dissolved in 20% β-cyclodextrin in water and sonicated overnight. All drugs were administered intraperitoneally in a volume of 100 μL/20 g. CGS-8216 was administered subcutaneously in a volume of 100 μL/20 g.
(§4) The vehicle control data were analyzed across test days using an 1-way analysis of variance (ANOVA). […] The dose-response curves were then analyzed using an 1-way ANOVA, followed by Dunnett's t-test for individual comparisons between doses and control. The open-field and habituated locomotor data were analyzed using ANOVA followed by Dunnett's t-test. […] All data is expressed as the mean±S.E.M.

[3] = test system: open-field activity; experiment: Open-field activity test; format: in vivo, mice (male N.I.H. Swiss-Webster); settings: for total distance, open-field: 20 mg/kg, 10 min, vehicle 2004.6 ± 134.6; for effect on open-field activity: steroids 20 mg/kg, diazepam 10 mg/kg
Text: as §1, §2
As a secondary measure of anxiolytic effects, naive mice were placed in the center of a large, brightly lit plexiglass box (42×42×30.5 cm) and the total distance traveled was measured during a 10 min. test period. […] The Digiscan Activity Monitor (Omnitech Electronics, Columbus, Ohio) includes 16 photobeams that surround the box. The activity monitor is linked to a computer through a Digiscan Analyzer (Omnitech Electronics) and the data is analyzed using the Integrated Lab Animal Monitoring System (Omnitech Electronics). The mice were administered drugs as described for light/dark transitions.
as §3, §4

[4] = target: GABA receptor-chloride ionophore complex (GR complex); experiment: [35S]TBPS binding modulation assay
[5] = read-out: % of inhibition of 3H-progesterone binding, A, competitor 10^-5 M, 0.15 nM 3H-progesterone
[6] = read-out: % of inhibition of 3H-progesterone binding, A, competitor 10^-6 M, 0.15 nM 3H-progesterone
[7] = read-out: % of inhibition of 3H-progesterone binding, B, competitor 10^-5 M, 0.25 nM 3H-progesterone
[8] = read-out: % of inhibition of 3H-progesterone binding, B, competitor 10^-6 M, 0.25 nM 3H-progesterone
[9] = read-out: IC50, inhibition of [35S]-TBPS binding, +5 μM GABA, in the presence of 5 μM GABA

C[C@]12CC[C@@H](O)C[C@@H]1CC[C@@H]1[C@@H]2CC[C@]2(C)[C@@H](C(=O)CO)CC[C@@H]12 [Example 5α-THDOC, 3α,21-dihydroxy-5α-pregnan-20-one]
inhibition at 10 µM [1, 5]: 35%
inhibition at 1 µM [1, 6]: 13%
inhibition at 10 µM [1, 7]: 28%
inhibition at 1 µM [1, 8]: 5%
effect on number of light/dark transitions (words) [2]: significantly different from vehicle
number of transitions in 10 min ([2]; 5α-THDOC 10 mg/kg i.p., vehicle 35.2±2.0, p<0.06, FIG. 10): 49.4±2.0 transitions
effect on number of light/dark transitions at the highest dose ([2]; 5α-THDOC 40 mg/kg, p<0.05 vs vehicle): significant decrease
total distance, open-field [3]: 7328.4 ± 769.5 cm
effect on open-field activity [3]: significant (p<0.01) increases in activity
IC50 [4, 9]: 80 nM
Max. Inhib., maximal % of specifically bound [35S]-TBPS displaced ([4]; saturating concentrations of test compound): 100%

CC(=O)[C@H]1CC[C@H]2[C@@H]3CC[C@H]4C[C@H](O)CC[C@]4(C)[C@H]3CC[C@]12C [Example 3α-OH-DHP, 3α-hydroxy-5α-pregnan-20-one]
inhibition at 10 µM [1, 5]: 41%
inhibition at 1 µM [1, 6]: 14%
inhibition at 10 µM [1, 7]: 40%
inhibition at 1 µM [1, 8]: 2%
number of transitions in 10 min (maximal effect) ([2]; 3α-OH-DHP 20 mg/kg i.p., FIG. 9): 70.2±4.3 transitions
effect on number of light/dark transitions (words) [2]: significant (p<0.01) increase
effect on number of light/dark transitions (words) ([2]; listed as α-OH-DHP): number of transitions was increased
total distance, open-field [3]: 5344.9 ± 754.5 cm
effect on open-field activity [3]: significant (p<0.01) increases in activity
IC50 [4, 9]: 38 nM
IC50 ([4]; read-out: IC50, inhibition of [35S]-TBPS binding, No GABA, washed synaptoneurosomes, no GABA added): 230 nM
